From patent US20220411448A1, “CHROMENE-4-ONE DERIVATIVES AS BRAIN-DERIVED NEUROTROPHIC FACTOR (BDNF) MIMETICS” (FLORATEK PHARMA AG, priority 2019, published 2022)

Columns and labels:
[1] = target: T1, MAO-A (Homo sapiens, UniProt P21397); test: In vitro inhibition of monoamine oxidase type A (BioVision MAO-A inhibitor screening kit); format: biochemical; settings: read-out: IC50 in vitro inhibition of MOA-A enzyme
T1 construct: purchased BioVision K796
T1 sequence (P21397 1-527): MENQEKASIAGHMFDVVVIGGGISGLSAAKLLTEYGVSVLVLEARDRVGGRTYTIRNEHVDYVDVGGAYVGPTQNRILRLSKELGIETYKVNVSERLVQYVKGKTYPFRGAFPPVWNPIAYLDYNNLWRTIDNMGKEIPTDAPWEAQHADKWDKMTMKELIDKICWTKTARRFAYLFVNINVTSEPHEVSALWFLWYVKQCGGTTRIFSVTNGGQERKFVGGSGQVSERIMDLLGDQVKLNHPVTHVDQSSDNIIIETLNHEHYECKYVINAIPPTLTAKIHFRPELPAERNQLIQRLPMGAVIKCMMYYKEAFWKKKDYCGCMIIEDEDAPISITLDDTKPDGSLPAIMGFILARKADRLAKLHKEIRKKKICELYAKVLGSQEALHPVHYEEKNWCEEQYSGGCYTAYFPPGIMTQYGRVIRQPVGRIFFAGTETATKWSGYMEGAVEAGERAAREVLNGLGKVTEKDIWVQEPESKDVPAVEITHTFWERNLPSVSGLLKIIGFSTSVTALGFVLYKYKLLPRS
Protocol: BioVision's MAO-A inhibitor screening kit (BioVision Cat no. K796) was used to assess inhibitory effects of the test items (TIs) on MAO-A in a fluorescent assay.
The assay was carried out according to the provided protocol: TIs were diluted to 10× with MAO-A Assay Buffer before use. 10 μl of test inhibitor (S), working solution of Inhibitor Control (IC; Clorgyline, 1 μM final in the well) and MAO-A Assay Buffer (Enzyme Control; EC) were added into assigned wells. 50 μl of diluted MAO-A Enzyme Solution was added to each well and incubated for 10 min at RT. To check the possible inhibitory effect of TIs on Developer, one well with TI was prepared parallel and incubated with 50 μl of a H2O2 mix instead of the MAO-A Enzyme Solution.
The reaction was started by adding 40 μl of the prepared substrate mix. Measurement of the fluorescence (Ex/Em=535/587 nm) was done kinetically at 25° C. for 10-30 min. Two time points (t1 and t2) in the linear range of the plot were chosen for further calculations (2 min and 6 min). The slope for all Sample Compounds [S], Enzyme Control [EC], Vehicle Control [VC] and Background Control [BC] were calculated by dividing the net ARFU (RFU2-RFU1) values by the time Δt (t2−t1). The slope obtained for the Background Control reaction was subtracted from the [S], [EC] and [VC] values. […]

[2] = tested on: organotypic hippocampal brain slices with IAA lesion; test: Organotypic brain slices, iodoacetic acid injury: mitochondrial membrane potential (TMRM); format: cell-based, mouse; settings: SND118 10 and 30 μM; SND124 30 μM; IAA 250 μM for 110 min
Protocol: (§1) Preparation of the organotypic brain slices were performed by decapitation of the P9/P10 mouse pups, removing skin and skull and immersing brains in slicing medium (Opti-MEM 1, […]). Brains were hemisected and hippocampi were isolated. Hippocampi were placed on the cutting disc of a McIlwain Tissue Chopper. […] hippocampal slices were chopped transversely. A number of 4 slices per hippocampus were placed on porous (0.4 μM) transparent membrane inserts (Millipore) and incubated for 1 h on ice in HBSS containing 10 mM glucose. Afterwards inserts were transferred to fresh 24-well plates containing 250-300 μl culture medium (50% MEM/EBSS, 25% horse serum, 25% CMF-HBSS, 25 mM glucose, 0.5% pen/strep). Slices were maintained at 37° C. and 5% CO2.
(§2) On DV15, brain slices were pretreated with SND derivatives test compounds and the reference 7,8DHF at various concentrations (between […]) for 30 min, followed by the addition of iodoacetic acid (IAA) at 250 μM for 110 min, when cell survival, MMP and toxicity were measured.
Cell survival was measured by the MTT assay. […] Fluorescence was measured with a plate-reader (Cytation 5) using wavelengths of excitation and emission of 548 and 574 nm, respectively (area scan). Values were calculated as percent of control values (vehicle control). Toxicity of the treatment was measured by LDH. […]

[3] = tested on: organotypic hippocampal brain slices with IAA lesion; test: Organotypic brain slices, iodoacetic acid injury: cell survival (MTT); format: cell-based, mouse; settings: SND118 10 and 30 μM; SND124 30 μM; 7,8 DHF 10 μm; IAA 250 μM for 110 min
Protocol: as §1, §2
Cell survival was measured by the MTT assay. For the determination of mitochondrial membrane potential, treated organotypic brain slices were loaded with the mitochondrial fluorescent dye, tetramethylrhodamine methyl ester (TMRM) at a final concentration of 100 nM in PBS and incubated for 45 min at 37° C. The TMRM containing solution was aspirated and slices were transferred into new well plates containing the appropriate amount of PBS. Fluorescence was measured with a plate-reader (Cytation 5) using wavelengths of excitation and emission of 548 and 574 nm, respectively (area scan). Values were calculated as percent of control values (vehicle control). Toxicity of the treatment was measured by LDH. No toxicity was observed.

[4] = tested on: TrkB receptor; test: Activation of TrkB receptor: phosphorylation in cortical neurons (WES capillary immunoassay); format: cell-based, mouse
Protocol: On the day of preparation (DIV1) cortical neurons were seeded on poly-D-lysine pre-coated 6-well plates at a density of 1.25*10^6 cells per well and cultured at 37° C.; 95% humidity and 5% CO2 until […] with a half medium exchange on DIV4-6. On DIV10 cells are treated with test item TI (SND118) and control Rh (7,8DHF) at different concentrations for 15 min. The experiment was carried out with n=6 technical replicates per condition, vehicle treated cells served as control. Cells were lysed in 150 μL cold RIPA buffer [50 mM Tris pH 7.4, 1% Nonidet P40, 0.25% Na-deoxy-cholate, 150 mM NaCl, 1 mM EDTA supplemented with freshly added 1 μM NaF, 0.2 mM Na-ortho-vanadate, 80 μM Glycerophosphate, protease (Calbiochem) and phosphatase (Sigma) inhibitor cocktail.
Phosphorylation of the TrkB receptor was detected using the following rabbit anti-Tyr specific antibodies: anti-TrkB Y515, Y706/707 and Y816 and compared with total TrkB detected with anti-TrkB antibody (Abcam). Antibody dilutions and protein amounts were optimized for signal specificity.
Automated separation and immunostaining of total and phospho TrkB was carried out using a capillary-based immunoassay, WES™ (Proteinsimple®). Samples were applied to a 25 capillary cartridge with a 2 to 440 kDa matrix, at an optimized total protein concentration. Sample loading, separation, immunoprobing, washing, detection and quantitative data analysis were performed automatically by WES™ Western system (Compass software V 4.0.0). The areas under the curve were used for the analysis and the phosphorylated versus vehicle or total TrkB signal ratio was calculated and used for statistics.

[5] = tested on: primary cultures of cerebral cortical astrocytes; settings: glutamate 200 μM, positive control; cited from earlier work
[6] = tested on: cortical neurons treated with glutamate; test: Neuron protection from glutamate injury: mitochondrial membrane potential (rhodamine 123); format: cell-based, rat
Protocol: (§3) Cortices were harvested from E19 rat embryos and dissociated enzymatically and mechanically. Dissociated cells were plated in poly-D-lysine coated imaging plates (384 wells), in 70 μL of neuronal growth medium (Neurocult Neuronal Basal medium+SM1 neuronal supplements+L-glutamine+HEPES). Cells were incubated at 37° C., 5% CO2 and half of the medium was changed twice per week.
For mitochondrial membrane potential measurement (MMP) neurons were cultured 10 to 14 days in vitro, the growth medium was discarded and wells were washed with 50 μL of extracellular saline. Saline was removed and replaced by 25 μL of staining solution (rhodamine 123 in a saline solution containing 1.5 mM Calcium, pyruvate and verapamil). The cells were incubated 30 min at 37° C./5% CO2. 5 μL of a staining solution with or without the test substances at 6× concentrated was added in the wells. […]
Glutamate was prepared 6× concentrated (6 μL on top of the 30 μL) in saline or saline+test compounds 1× concentrated depending on the conditions. […] Basal MMP levels were measured for 1 minute before automated addition of the compounds or controls while recording. MMP signals were further recorded for 30 minutes to 1 hour. […]
Rhodamine 123 is a cationic fluorescent dye that is used to specifically label respiring mitochondria. […] Loss of potential will result in loss of the dye and, therefore, the fluorescence intensity.

[7] = tested on: cortical neurons treated with glutamate; test: Neuron protection from glutamate injury: intracellular calcium measurement; format: cell-based, rat
Protocol: as §3
For Calcium measurement, the cells were cultured for 10 to 14 days in vitro, the growth medium was discarded and replaced by 25 μL of a calcium probe in a saline solution (containing 1.5 mM Calcium) for 30 min at 37° C./5% CO2. 5 μL of calcium probe in a saline solution with or without the test substances at 6× concentrated was added in the wells for the pre-treatment step. The wells were further incubated 30 min at 37° C./5% CO2
For calcium measurement, at the end of the pre-treatment, glutamate was prepared at 6× concentrated (6 μL on top of the 30 μL). The final vehicle concentration in all conditions was adjusted. Basal calcium levels was measured for 1 minute before automated addition of the compounds or controls while recording. Intracellular calcium signals was further recorded for 5 to 10 minutes at a sampling rate of around 1 point per second. Each experimental condition was tested in quadruplicate wells.

## CCNC(=O)Oc1ccc2c(=O)cc(-c3ccc(CCCC[P+](c4ccccc4)(c4ccccc4)c4ccccc4)cc3)oc2c1OC(=O)NCC.[Br-] [SND124, 4-[4-[7,8-Bis(ethylcarbamoyloxy)-4-oxo-chromen-2-yl]phenyl]-butyltriphenylphosphonium bromide]
[1]
  IC50: 20 µM
[2]
  mitochondria function (MMP, TMRM) after IAA lesion: rescued mitochondria function
[3]
  cell survival upon IAA lesion (MTT): statistically increase cell survival

## O=c1cc(-c2ccccc2)oc2c(O)c(O)ccc12 [7,8DHF, 7,8-dihydroxyflavone, reference compound]
[4]; 1 and 2 μM
  phosphorylation of the TrkB receptor at sites Tyr 515 and Tyr 816: induced a lower phosphorylation, which did not reach statistical significance
[4]; SND118 2 μM
  phosphorylation of TrkB at Tyr residue 706/707 versus the vehicle: neither the derivative nor the 7,8DHF reached statistical significance
[3]
  cell survival upon IAA lesion (MTT): no effect

## N[C@@H](CCC(=O)O)C(=O)O [glutamate]
[5]
  increase of glucose entry: 20 to 30%

## COc1c(O)ccc2c(=O)cc(-c3ccc(CCCC[P+](c4ccccc4)(c4ccccc4)c4ccccc4)cc3)oc12.[Br-] [SND135, (4-(4-(7-hydroxy-8-methoxy-4-oxo-4H-chromen-2-yl)phenyl)butyl)triphenylphosphonium bromide]
[6]; SND135 between 3 and 30 μM, glutamate between 10 and 100 μM
  mitochondria potential induced by glutamate (rhodamine 123): decreases mitochondria potential
[7]; SND135 30 μM, glutamate 30 μM
  calcium release induced by glutamate: decreased
[7]; SND135 10 and 30 μM, glutamate 10 and 30 μM
  calcium release induced by glutamate (maximum peak of calcium kinetic): decreases calcium release

## C[C@]12N[C@H](Cc3ccccc31)c1ccccc12 [MK801, [(+)-5-methyl-10,11-dihydroxy-5H-dibenzo(a,d)cyclohepten-5,10-imine], reference compound]
[6]; MK801 10 μM, control compound
  mitochondria potential increased by glutamate (rhodamine 123): restored
